From US20250346569A1, “NEW DERIVATIVES FOR TREATING TRPM3 MEDIATED DISORDERS” (Katholieke Universiteit Leuven, priority 2022, published 2025)

Target: T1, mouse TRPM3α2 (mTRPM3) ion channel (Mus musculus, UniProt J9SQF3)
T1 construct: expressed in transfected cells; host or cells: flip-in HEK293
Experiment: Monitoring the TRPM3 ion channel driven Ca2+ uptake (Fluo-4 AM assay)
Format: cell-based
Conditions: TRPM3 overexpressing flip-in HEK293 cells, channel stimulated with Pregnenolone sulfate (PS) 50 μM
Method: Monitoring the TRPM3 ion channel driven Ca^2+ uptake.
In order to monitor the inhibition of the mouse TRPM3α2 (mTRPM3) ion channel by the compounds of the invention, a cellular system making use of an mTRPM3alpha2 or hTRPM3 overexpressing cell line (flip-in HEK293) was used. The TRPM3 channel was stimulated/opened with Pregnenolone sulfate (PS) (50 μM) which results in Ca^2+ influx.
For mTRPM3, the intracellular Ca^2+ was measured with a Calcium responsive dye, Fluor-4 AM ester (Invitrogen). Cells were cultured until a confluence of 80-90%, washed with Versene (Invitrogen) and detached from the surface by a short incubation with 0.05% Trypsin (Invitrogen). The trypsination process was stopped by the addition of complete cell culture medium (DMEM, glutamax,10% FCS,NEAA,Pen-Strep). Cells were collected and resuspended in Krebs buffer without Calcium at RT.
Prior the cell seeding (±2000 cells/well into a black, 384 well plate (Greiner)) the diluted compound was added in the assay plate, together with the PS dissolved in Krebs buffer containing Calcium. […] Directly after cell addition the plates were read on an Envision fluorescence reader (Perkin Elmer) by an Excitation of 485 nm and emission at 535 nm.
Channel inhibition was calculated compared to a non-PS stimulated control versus a condition stimulated with PS (50 μM) with vehicle. The ability of the compounds of the invention to inhibit this activity was determined as: Percentage inhibition=[1−((RFU determined for sample with test compound present−RFU determined for sample with positive control inhibitor) divided by (RFU determined in the presence of vehicle−RFU determined for sample with positive control inhibitor))]*100.
The activities of the Example compounds tested are depicted in the table below. The activity ranges A, B and C refer to IC50 values in the Fluo-4 AM assay as follows: “A”: IC50<1 μM; “B”: 1 μM≤IC50≤20 μM and “C”: IC50>20 μM

T1 sequence (J9SQF3 1-1709 isoform J9SQF3-12): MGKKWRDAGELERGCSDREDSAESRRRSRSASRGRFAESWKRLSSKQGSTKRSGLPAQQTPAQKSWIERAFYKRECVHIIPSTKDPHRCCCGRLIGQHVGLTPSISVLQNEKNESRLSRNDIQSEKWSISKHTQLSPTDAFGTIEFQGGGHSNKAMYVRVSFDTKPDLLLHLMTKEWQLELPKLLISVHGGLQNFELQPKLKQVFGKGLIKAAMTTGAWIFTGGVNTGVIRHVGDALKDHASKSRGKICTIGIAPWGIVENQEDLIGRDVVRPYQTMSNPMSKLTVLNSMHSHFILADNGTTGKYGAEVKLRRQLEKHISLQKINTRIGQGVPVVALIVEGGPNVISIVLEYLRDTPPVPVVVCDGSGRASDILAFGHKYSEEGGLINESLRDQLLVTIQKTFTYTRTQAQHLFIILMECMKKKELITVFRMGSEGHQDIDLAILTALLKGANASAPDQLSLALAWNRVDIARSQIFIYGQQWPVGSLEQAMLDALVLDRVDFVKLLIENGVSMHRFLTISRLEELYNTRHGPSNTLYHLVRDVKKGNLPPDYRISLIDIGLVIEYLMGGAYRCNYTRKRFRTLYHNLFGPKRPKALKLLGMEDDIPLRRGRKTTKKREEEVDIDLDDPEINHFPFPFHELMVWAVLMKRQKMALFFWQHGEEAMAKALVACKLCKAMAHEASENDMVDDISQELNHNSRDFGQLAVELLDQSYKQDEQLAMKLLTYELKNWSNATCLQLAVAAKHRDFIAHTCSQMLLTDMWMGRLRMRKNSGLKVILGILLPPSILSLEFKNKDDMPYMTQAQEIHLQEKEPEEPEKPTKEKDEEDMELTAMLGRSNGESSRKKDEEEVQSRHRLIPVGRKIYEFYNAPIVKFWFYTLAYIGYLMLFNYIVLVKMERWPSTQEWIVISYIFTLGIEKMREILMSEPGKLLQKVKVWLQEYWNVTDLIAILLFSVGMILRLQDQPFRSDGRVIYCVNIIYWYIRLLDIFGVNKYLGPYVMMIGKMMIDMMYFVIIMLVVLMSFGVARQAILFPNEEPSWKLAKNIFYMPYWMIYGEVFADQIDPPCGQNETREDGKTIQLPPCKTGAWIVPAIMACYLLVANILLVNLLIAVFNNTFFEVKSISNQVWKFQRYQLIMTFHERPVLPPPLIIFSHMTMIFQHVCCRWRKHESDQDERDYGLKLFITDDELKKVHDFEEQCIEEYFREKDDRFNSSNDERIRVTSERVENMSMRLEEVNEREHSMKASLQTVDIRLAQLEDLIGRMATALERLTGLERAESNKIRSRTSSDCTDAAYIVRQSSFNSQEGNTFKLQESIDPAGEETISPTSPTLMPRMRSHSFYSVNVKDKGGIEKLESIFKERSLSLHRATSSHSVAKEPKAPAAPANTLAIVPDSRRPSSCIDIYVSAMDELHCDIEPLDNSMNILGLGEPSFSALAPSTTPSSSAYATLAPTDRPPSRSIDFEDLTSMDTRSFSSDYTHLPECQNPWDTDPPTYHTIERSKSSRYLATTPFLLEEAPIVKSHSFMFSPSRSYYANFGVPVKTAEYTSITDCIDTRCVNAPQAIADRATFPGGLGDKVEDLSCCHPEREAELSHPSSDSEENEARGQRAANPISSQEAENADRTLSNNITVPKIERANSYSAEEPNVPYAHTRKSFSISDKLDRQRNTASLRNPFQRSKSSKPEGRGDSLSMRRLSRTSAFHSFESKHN

| Compound | IC50 [µM] |
| --- | --- |
| Cc1ncc(COc2ccc3sc(C)c(C(=O)N[C@@H](CO)C(N)=O)c3c2)s1 [Cpd 016, (2S)-3-hydroxy-2-({2-methyl-5-[(2-methyl-1,3-thiazol-5-yl)methoxy]-1-benzothiophen-3-yl}formamido)propanamide] | < 1 |
| Cc1ncc(COc2ccc3sc(C)c(C(=O)N[C@H](CO)C(N)=O)c3c2)s1 [Cpd 017, (2R)-3-hydroxy-2-({2-methyl-5-[(2-methyl-1,3-thiazol-5-yl)methoxy]-1-benzothiophen-3-yl}formamido)propanamide] | < 1 |
| Cc1ncsc1COc1ccc2sc(C)c(C(=O)NC3CC(F)(F)C3)c2c1 [Cpd 039, N-(3,3-difluorocyclobutyl)-2-methyl-5-[(4-methyl-1,3-thiazol-5-yl)methoxy]-1-benzothiophene-3-carboxamide] | < 1 |
| Cc1sc2ccc(OCc3ccccn3)cc2c1C(=O)N[C@@H](C)C(N)=O [Cpd 008, (2S)-2-({2-methyl-5-[(pyridin-2-yl)methoxy]-1-benzothiophen-3-yl}formamido)propanamide] | < 1 |
| Cc1ncc(COc2ccc3sc(C)c(C(=O)N[C@H](C)C(N)=O)c3c2)s1 [Cpd 005, (2R)-2-({2-methyl-5-[(2-methyl-1,3-thiazol-5-yl)methoxy]-1-benzothiophen-3-yl}formamido)propanamide] | < 1 |
| Cc1ncsc1COc1ccc2sc(C)c(C(=O)NC3(CO)CCOCC3)c2c1 [Cpd 036, N-[4-(hydroxymethyl)oxan-4-yl]-2-methyl-5-[(4-methyl-1,3-thiazol-5-yl)methoxy]-1-benzothiophene-3-carboxamide] | < 1 |
| Cc1sc2ccc(OCC3CCOCC3)cc2c1C(=O)NC(C)(CO)C(N)=O (single isomer, unassigned) [Cpd 067 - En2, 3-hydroxy-2-methyl-2-({2-methyl-5-[(oxan-4-yl)methoxy]-1-benzothiophen-3-yl}formamido)propanamide] | 1 to 20 |
| Cc1sc2ccc(OCc3cccnc3C(F)(F)F)cc2c1C(=O)NC1(CO)CC1 [Cpd 076, N-[1-(hydroxymethyl)cyclopropyl]-2-methyl-5-{[2-(trifluoromethyl)pyridin-3-yl]methoxy}-1-benzothiophene-3-carboxamide] | < 1 |
| Cc1sc2ccc(OCc3ccccc3F)cc2c1C(=O)N[C@H]1CCN(CCO)C1=O [Cpd 059, 5-[(2-fluorophenyl)methoxy]-N-[(3S)-1-(2-hydroxyethyl)-2-oxopyrrolidin-3-yl]-2-methyl-1-benzothiophene-3-carboxamide] | < 1 |
| Cc1ncc(COc2ccc3sc(C)c(C(=O)NC4(C(N)=O)CCOCC4)c3c2)s1 [Cpd 021, 4-{2-methyl-5-[(2-methyl-1,3-thiazol-5-yl)methoxy]-1-benzothiophene-3-amido}oxane-4-carboxamide] | < 1 |
| Cc1nc(COc2ccc3sc(C)c(C(=O)NC(C)(CO)C(N)=O)c3c2)cs1 (single isomer, unassigned) [Cpd 015 - En2, 3-hydroxy-2-methyl-2-({2-methyl-5-[(2-methyl-1,3-thiazol-4-yl)methoxy]-1-benzothiophen-3-yl}formamido)propanamide] | < 1 |
| Cc1ncc(COc2ccc3sc(C)c(C(=O)NC4(C(N)=O)CCOC4)c3c2)s1 (centres unmarked) [Cpd 020, 3-{2-methyl-5-[(2-methyl-1,3-thiazol-5-yl)methoxy]-1-benzothiophene-3-amido}oxolane-3-carboxamide] | < 1 |
| Cc1ncsc1COc1ccc2sc(C)c(C(=O)NC(C)(CO)CO)c2c1 [Cpd 032, N-(1,3-dihydroxy-2-methylpropan-2-yl)-2-methyl-5-[(4-methyl-1,3-thiazol-5-yl)methoxy]-1-benzothiophene-3-carboxamide] | < 1 |
| Cc1sc2ccc(OCC3COC3)cc2c1C(=O)NC(C)(CO)C(N)=O (single isomer, unassigned) [Cpd 068 - En1, 3-hydroxy-2-methyl-2-({2-methyl-5-[(oxetan-3-yl)methoxy]-1-benzothiophen-3-yl}formamido)propanamide] | > 20 |
| Cc1sc2ccc(OCc3cccnc3O)cc2c1C(=O)NC1(CO)CCC1 [Cpd 079, N-[1-(hydroxymethyl)cyclobutyl]-5-[(2-hydroxypyridin-3-yl)methoxy]-2-methyl-1-benzothiophene-3-carboxamide] | 1 to 20 |
| Cc1ncsc1COc1ccc2sc(C)c(C(=O)NC3(CO)CCC3)c2c1 [Cpd 035, N-[1-(hydroxymethyl)cyclobutyl]-2-methyl-5-[(4-methyl-1,3-thiazol-5-yl)methoxy]-1-benzothiophene-3-carboxamide] | < 1 |
| Cc1ncsc1COc1ccc2sc(C)c(C(=O)NC3(C(N)=O)COC3)c2c1 [Cpd 038, 3-{2-methyl-5-[(4-methyl-1,3-thiazol-5-yl)methoxy]-1-benzothiophene-3-amido}oxetane-3-carboxamide] | < 1 |
| Cc1ncc(COc2ccc3sc(C)c(C(=O)NC4(C(N)=O)COC4)c3c2)s1 [Cpd 026, 3-{2-methyl-5-[(2-methyl-1,3-thiazol-5-yl)methoxy]-1-benzothiophene-3-amido}oxetane-3-carboxamide] | < 1 |
| Cc1sc2ccc(OCc3ccccc3F)cc2c1C(=O)N[C@@H](CO)C(N)=O [Cpd 051, (2S)-2-({5-[(2-fluorophenyl)methoxy]-2-methyl-1-benzothiophen-3-yl}formamido)-3-hydroxypropanamide] | < 1 |
| Cc1sc2ccc(OCC3CC3)cc2c1C(=O)NC(C)(CO)CO [Cpd 069, 5-(cyclopropylmethoxy)-N-(1,3-dihydroxy-2-methylpropan-2-yl)-2-methyl-1-benzothiophene-3-carboxamide] | < 1 |

Next, values leading:

| IC50 [µM] | Compound |
| --- | --- |
| < 1 | Cc1sc2ccc(OCc3ccccc3F)cc2c1C(=O)NC1CCNC1=O (centres unmarked) [Cpd 093, 5-[(2-fluorophenyl)methoxy]-2-methyl-N-(2-oxopyrrolidin-3-yl)-1-benzothiophene-3-carboxamide] |
| 1 to 20 | CN1CCC(NC(=O)c2c(C(F)F)sc3ccc(OCc4ccccc4)cc23)C1 (centres unmarked) [Cpd 124, 5-(benzyloxy)-2-(difluoromethyl)-N-(1-methylpyrrolidin-3-yl)-1-benzothiophene-3-carboxamide] |
| > 20 | O=C(NC1(CO)CCOCC1)c1c(C(F)F)sc2ccc(OCc3ccccc3)cc12 [Cpd 152, 5-(benzyloxy)-2-(difluoromethyl)-N-[4-(hydroxymethyl)oxan-4-yl]-1-benzothiophene-3-carboxamide] |
| > 20 | O=C(NCc1cccc(O)n1)c1c(C(F)F)sc2ccc(OCc3ccccc3)cc12 [Cpd 151, 5-(benzyloxy)-2-(difluoromethyl)-N-[(6-hydroxypyridin-2-yl)methyl]-1-benzothiophene-3-carboxamide] |
| 1 to 20 | Cc1sc2ccc(OCc3cccnc3C(F)(F)F)cc2c1C(=O)NCCN1CCOC1=O [Cpd 107, 2-methyl-N-[2-(2-oxo-1,3-oxazolidin-3-yl)ethyl]-5-{[2-(trifluoromethyl)pyridin-3-yl]methoxy}-1-benzothiophene-3-carboxamide] |
| < 1 | Cc1sc2ccc(OCc3ccccc3)cc2c1C(=O)NC1CN(C)CC1(F)F (centres unmarked) [Cpd 120, 5-(benzyloxy)-N-(4,4-difluoro-1-methylpyrrolidin-3-yl)-2-methyl-1-benzothiophene-3-carboxamide] |
| < 1 | Cc1sc2ccc(OCc3cccnc3C(F)(F)F)cc2c1C(=O)NCCN(C)C [Cpd 117, N-[2-(dimethylamino)ethyl]-2-methyl-5-{[2-(trifluoromethyl)pyridin-3-yl]methoxy}-1-benzothiophene-3-carboxamide] |
| < 1 | Cc1sc2ccc(OCc3cccnc3C(F)(F)F)cc2c1C(=O)NCC1(N(C)C)CCCC1 [Cpd 113, N-{[1-(dimethylamino)cyclopentyl]methyl}-2-methyl-5-{[2-(trifluoromethyl)pyridin-3-yl]methoxy}-1-benzothiophene-3-carboxamide] |
| 1 to 20 | Cn1ccc(NC(=O)c2c(C(F)F)sc3ccc(OCc4ccccc4)cc23)n1 [Cpd 131, 5-(benzyloxy)-2-(difluoromethyl)-N-(1-methyl-1H-pyrazol-3-yl)-1-benzothiophene-3-carboxamide] |
| < 1 | Cc1sc2ccc(OCc3ccccc3F)cc2c1C(=O)NC1(C(N)=O)COC1 [Cpd 087, 3-{5-[(2-fluorophenyl)methoxy]-2-methyl-1-benzothiophene-3-amido}oxetane-3-carboxamide] |
| < 1 | CNC(=O)C(C)(CO)NC(=O)c1c(C)sc2ccc(OCc3cnc(C)s3)cc12 (single isomer, unassigned) [Cpd 132 - En2, 3-hydroxy-N,2-dimethyl-2-({2-methyl-5-[(2-methyl-1,3-thiazol-5-yl)methoxy]-1-benzothiophen-3-yl}formamido)propanamide] |
| < 1 | Cc1ncsc1COc1ccc2sc(C)c(C(=O)NCCN(C)C)c2c1 [Cpd 118, N-[2-(dimethylamino)ethyl]-2-methyl-5-[(4-methyl-1,3-thiazol-5-yl)methoxy]-1-benzothiophene-3-carboxamide] |
